Source: patent US8084649B2, “Herbicides” (Syngenta Crop Protection, inc., priority 2007, dated 2011)

These molecules were tested on Alopecurus myosuroides (ALOMY) (assay: Pre-emergence herbicidal activity, glasshouse pot test). Conditions: Alopecurus myosuroides, 480 h, rate 500 g/ha, evaluated after 20 days, read-out: Pre-emergence activity, ALOMY (100=total damage to plant; 0=no damage to plant).
Format: in vivo
Experimental: (§1) Monocotyledonous and dicotyledonous test plants were sown in sterilised standard soil in pots. After cultivation for one day (pre-emergence) or after 10 days cultivation (post-emergence) under controlled conditions in a glasshouse, the plants were sprayed with an aqueous spray solution derived from the formulation of the technical active ingredient in 0.6 ml acetone and 45 ml formulation solution containing 10.6% Emulsogen EL (Registry number 61791-12-6), 42.2% N-methylpyrrolidone, 42.2% dipropylene glycol monomethyl ether (Registry number 34590-94-8) and 0.2% X-77 (Registry number 11097-66-8). The test plants were then grown in a greenhouse under optimum conditions until, 14 or 15 days later for post-emergence and 20 days for pre-emergence, the test was evaluated (100=total damage to plant; 0=no damage to plant). Alopecurus myosuroides (ALOMY), Avena fatua (AVEFA), Lolium perenne (LOLPE), Setaria faberi (SETFA), Digitaria sanguinalis (DIGSA), Echinochloa crus-galli (ECHCG) Pre-Emergence Activity
Molecule `CCc1cc(C)cc(CC)c1C1=C(O)CC(CCS(C)(=O)=O)CC1=O` (stereo not drawn) [Compound T14] has a pest or weed control at 500 g/ha of 90%. Molecule `CCc1cc(C)cc(CC)c1C1=C(O)CC(CC(C)SC(C)C)CC1=O` (stereo not drawn) [Compound T38] has a pest or weed control at 500 g/ha of 90%.

The molecules below were run on Echinochloa crus-galli (ECHCG) in the same assay as above. Conditions: Echinochloa crus-galli, 480 h, rate 500 g/ha, evaluated after 20 days, read-out: Pre-emergence activity, ECHCG (100=total damage to plant; 0=no damage to plant).
Format: in vivo
Experimental: as §1
Molecule `CCc1cc(C)cc(CC)c1C1=C(O)CC(CCS(C)(=O)=O)CC1=O` (stereo not drawn) [Compound T14] has a pest or weed control at 500 g/ha of 100%. `CCc1cc(C)cc(CC)c1C1=C(O)CC(CC(C)SC(C)C)CC1=O` (stereo not drawn) [Compound T38] was tested, and the pest or weed control at 500 g/ha was 70%.

What follows are molecules tested on Setaria faberi (SETFA) in the same assay as above. Conditions: Setaria faberi, 480 h, rate 500 g/ha, evaluated after 20 days, read-out: Pre-emergence activity, SETFA (100=total damage to plant; 0=no damage to plant).
Format: in vivo
Experimental: as §1
`CCc1cc(C)cc(CC)c1C1=C(O)CC(CCS(C)(=O)=O)CC1=O` (stereo not drawn) [Compound T14] showed a pest or weed control at 500 g/ha of 100%. Molecule `CCc1cc(C)cc(CC)c1C1=C(O)CC(CC(C)SC(C)C)CC1=O` (stereo not drawn) [Compound T38] has a pest or weed control at 500 g/ha of 60%.

The molecules below were run on Digitaria sanguinalis (DIGSA) in the same assay as above. Conditions: Digitaria sanguinalis, 480 h, rate 500 g/ha, evaluated after 20 days, read-out: Pre-emergence activity, DIGSA (100=total damage to plant; 0=no damage to plant).
Format: in vivo
Experimental: as §1
Molecule `CCc1cc(C)cc(CC)c1C1=C(O)CC(CCS(C)(=O)=O)CC1=O` (stereo not drawn) [Compound T14] has a pest or weed control at 500 g/ha of 100%. For `CCc1cc(C)cc(CC)c1C1=C(O)CC(CC(C)SC(C)C)CC1=O` (stereo not drawn) [Compound T38], the pest or weed control at 500 g/ha was 70%.

What follows are molecules tested on Lolium perenne (LOLPE) in the same assay as above. Conditions: Lolium perenne, 480 h, rate 500 g/ha, evaluated after 20 days, read-out: Pre-emergence activity, LOLPE (100=total damage to plant; 0=no damage to plant).
Format: in vivo
Experimental: as §1
In the case of `CCc1cc(C)cc(CC)c1C1=C(O)CC(CCS(C)(=O)=O)CC1=O` (stereo not drawn) [Compound T14], the pest or weed control at 500 g/ha is reported as 100%. Molecule `CCc1cc(C)cc(CC)c1C1=C(O)CC(CC(C)SC(C)C)CC1=O` (stereo not drawn) [Compound T38] has a pest or weed control at 500 g/ha of 100%.

Each molecule was assayed on Avena fatua (AVEFA) in the same assay as above. Conditions: Avena fatua, 480 h, rate 500 g/ha, evaluated after 20 days, read-out: Pre-emergence activity, AVEFA (100=total damage to plant; 0=no damage to plant).
Format: in vivo
Experimental: as §1
`CCc1cc(C)cc(CC)c1C1=C(O)CC(CCS(C)(=O)=O)CC1=O` (stereo not drawn) [Compound T14] gave a pest or weed control at 500 g/ha of 100%. In the case of `CCc1cc(C)cc(CC)c1C1=C(O)CC(CC(C)SC(C)C)CC1=O` (stereo not drawn) [Compound T38], the pest or weed control at 500 g/ha is reported as 70%.

Each molecule was assayed on Alopecurus myosuroides (ALOMY) (assay: Post-emergence herbicidal activity, glasshouse pot test). Conditions: Alopecurus myosuroides, rate 500 g/ha, evaluated after 14 or 15 days, read-out: Post-emergence activity, ALOMY (100=total damage to plant; 0=no damage to plant).
Format: in vivo
Experimental: as §1, with “Post-Emergence” for “Pre-Emergence”
Work on `CCc1cc(C)cc(CC)c1C1=C(O)CC(CCS(C)(=O)=O)CC1=O` (stereo not drawn) [Compound T14] yielded a pest or weed control at 500 g/ha of 90%. Molecule `CCc1cc(C)cc(CC)c1C1=C(O)CC(CC(C)SC(C)C)CC1=O` (stereo not drawn) [Compound T38] has a pest or weed control at 500 g/ha of 90%.

The molecules below were run on Echinochloa crus-galli (ECHCG) in the same assay as above. Conditions: Echinochloa crus-galli, rate 500 g/ha, evaluated after 14 or 15 days, read-out: Post-emergence activity, ECHCG (100=total damage to plant; 0=no damage to plant).
Format: in vivo
Experimental: as §1, with “Post-Emergence” for “Pre-Emergence”
In the case of `CCc1cc(C)cc(CC)c1C1=C(O)CC(CCS(C)(=O)=O)CC1=O` (stereo not drawn) [Compound T14], the pest or weed control at 500 g/ha is reported as 100%. With `CCc1cc(C)cc(CC)c1C1=C(O)CC(CC(C)SC(C)C)CC1=O` (stereo not drawn) [Compound T38] the pest or weed control at 500 g/ha was 70%.

These molecules were tested on Setaria faberi (SETFA) in the same assay as above. Conditions: Setaria faberi, rate 500 g/ha, evaluated after 14 or 15 days, read-out: Post-emergence activity, SETFA (100=total damage to plant; 0=no damage to plant).
Format: in vivo
Experimental: as §1, with “Post-Emergence” for “Pre-Emergence”
Work on `CCc1cc(C)cc(CC)c1C1=C(O)CC(CCS(C)(=O)=O)CC1=O` (stereo not drawn) [Compound T14] yielded a pest or weed control at 500 g/ha of 100%. `CCc1cc(C)cc(CC)c1C1=C(O)CC(CC(C)SC(C)C)CC1=O` (stereo not drawn) [Compound T38] gave a pest or weed control at 500 g/ha of 80%.

These molecules were tested on Digitaria sanguinalis (DIGSA) in the same assay as above. Conditions: Digitaria sanguinalis, rate 500 g/ha, evaluated after 14 or 15 days, read-out: Post-emergence activity, DIGSA (100=total damage to plant; 0=no damage to plant).
Format: in vivo
Experimental: as §1, with “Post-Emergence” for “Pre-Emergence”
Molecule `CCc1cc(C)cc(CC)c1C1=C(O)CC(CCS(C)(=O)=O)CC1=O` (stereo not drawn) [Compound T14] has a pest or weed control at 500 g/ha of 100%. Work on `CCc1cc(C)cc(CC)c1C1=C(O)CC(CC(C)SC(C)C)CC1=O` (stereo not drawn) [Compound T38] yielded a pest or weed control at 500 g/ha of 70%.

The molecules below were run on Lolium perenne (LOLPE) in the same assay as above. Conditions: Lolium perenne, rate 500 g/ha, evaluated after 14 or 15 days, read-out: Post-emergence activity, LOLPE (100=total damage to plant; 0=no damage to plant).
Format: in vivo
Experimental: as §1, with “Post-Emergence” for “Pre-Emergence”
For `CCc1cc(C)cc(CC)c1C1=C(O)CC(CCS(C)(=O)=O)CC1=O` (stereo not drawn) [Compound T14], the pest or weed control at 500 g/ha was 90%. `CCc1cc(C)cc(CC)c1C1=C(O)CC(CC(C)SC(C)C)CC1=O` (stereo not drawn) [Compound T38] was tested, and the pest or weed control at 500 g/ha was 90%.

What follows are molecules tested on Avena fatua (AVEFA) in the same assay as above. Conditions: Avena fatua, rate 500 g/ha, evaluated after 14 or 15 days, read-out: Post-emergence activity, AVEFA (100=total damage to plant; 0=no damage to plant).
Format: in vivo
Experimental: as §1, with “Post-Emergence” for “Pre-Emergence”
With `CCc1cc(C)cc(CC)c1C1=C(O)CC(CC(C)SC(C)C)CC1=O` (stereo not drawn) [Compound T38] the pest or weed control at 500 g/ha was 100%.

Same assay, conditions: rate 500 g/ha, evaluated after 14 or 15 days
`CCc1cc(C)cc(CC)c1C1=C(O)CC(CCS(C)(=O)=O)CC1=O` (stereo not drawn) [Compound T14] was tested, and the “Post-emergence activity, AVEFA (100=total damage to plant; 0=no damage to plant)” value was 90.
